Where “and” joins values, the source holds several entries; their conditions need not be identical. Equal entries are not always repeated. Where two headings read alike, the source gives them in different places.
How the values were obtained:
[1] = test system: bacteria on commercial hatching eggs; settings: DHP about 0.1 ppm, P=0.05
[2] = test system: S. aureus ATCC 33592 (MRSA)
[3] = Day 4 DHP+, summary of replicates stored 4 days
[4] = Day 5 DHP+, summary of replicates stored 5 days
[5] = Day 6 DHP+, summary of replicates stored 6 days
[6] = Day 7 DHP+, summary of replicates stored 7 days
[7] = Delta Avg. Trtd versus Avg. Untrd, egg storage 4 to 7 days
[8] = Mean / Avg. Trtd, 22 DHP replicates, egg storage 4 to 7 days
[9] = with DHP, egg storage 4 days, single replicate of 90 eggs
[10] = with DHP, egg storage 5 days, single replicate of 90 eggs
[11] = with DHP, egg storage 6 days, single replicate of 90 eggs
[12] = with DHP, egg storage 7 days, single replicate of 90 eggs

## OO [DHP, dry hydrogen peroxide]
[1]; after 72 hours
  number of bacteria growing on TSA: significantly reduced
[1]; after 120 hours
  number of bacteria growing on TSA: significantly reduced
[2]; 6 Hours, Hood (Treated)
  % Reduction compared: 95.150%
  Log Reduction compared to: 1.31 Log
[2]; 6 Hours, Room (Treated)
  % Reduction compared: 83.053%
  Log Reduction compared to: 0.77 Log
[2]; 24 Hours, Hood (Treated)
  % Reduction compared: >66.667%
  Log Reduction compared to: >0.48 Log
  Replicate CFU/Carrier: <5.00E+00 CFU/Carrier
[2]; 24 Hours, Room (Treated)
  % Reduction compared: >88.889%
  Average CFU/Carrier: <5.00E+00 CFU/Carrier
  Log Reduction compared to: >0.95 Log
  Replicate CFU/Carrier: 5.00E+00 CFU/Carrier and <5.00E+00 CFU/Carrier
[2]; 48 Hours, Hood (Treated)
  % Reduction compared: >78.947%
  Log Reduction compared to: >0.68 Log
  Replicate CFU/Carrier: <5.00E+00 CFU/Carrier
[2]; 48 Hours, Room (Treated)
  % Reduction compared: >89.474%
  Average CFU/Carrier: <5.00E+00 CFU/Carrier
  Log Reduction compared to: >0.98 Log
  Replicate CFU/Carrier: <5.00E+00 CFU/Carrier
Eggs and hatched chicks; 4 day delta, DHP+ versus DHP−
  % Infertile, delta: 0.64%
  Chick A, delta: 0.14%
  Chick B, delta: −0.14%
  Chick Weight, delta: 0.89 g
  Cont, delta: 0.00%
  Crack, delta: 0.32%
  Cull dead cks, delta: 0.00%
  Dead pip, delta: −0.16%
  Early dead, delta: −0.33%
  Fertile Hatchability, delta: 0.12%
  Late dead, delta: −0.64%
  Live pip, delta: 0.63%
  Mid dead, delta: 0.16%
  Total Hatchability, delta: −0.64%
Eggs and hatched chicks; 5 day delta, DHP+ versus DHP−
  Chick Weight, delta: 0.85 g
  Cont, delta: 0.00%
  Crack, delta: −0.19%
  Cull dead cks, delta: 0.00%
  Dead pip, delta: −0.37%
  Early dead, delta: −1.70%
  Fertile Hatchability, delta: 3.20%
  Live pip, delta: 0.37%
  Mid dead, delta: 0.74%
Eggs and hatched chicks; 6 day delta, DHP+ versus DHP−
  % Infertile, delta: 0.94%
  Chick A, delta: −0.57%
  Chick B, delta: 0.57%
  Chick Weight, delta: 0.49 g
  Cont, delta: 0.00%
  Crack, delta: 0.00%
  Cull dead cks, delta: −0.48%
  Dead pip, delta: −0.48%
  Late dead, delta: −0.82%
  Live pip, delta: −0.16%
  Mid dead, delta: 0.48%
Eggs and hatched chicks; [3]
  Cont: 0.00%
  Crack: 0.48%
  Cull dead cks: 0.00%
  Dead pip: 0.16%
  Live pip: 0.95%
  Mid dead: 0.16%
Eggs and hatched chicks; [4]
  Cont: 0.00%
  Crack: 0.00%
  Cull dead cks: 0.00%
  Dead pip: 0.00%
  Live pip: 0.56%
  Mid dead: 0.93%
Eggs and hatched chicks; [5]
  Cont: 0.00%
  Crack: 0.00%
  Cull dead cks: 0.00%
  Dead pip: 0.00%
  Early dead: 2.70%
  Live pip: 0.16%
  Mid dead: 0.79%
Eggs and hatched chicks; [6]
  % Infertile: 0.56%
  Cont: 0.00%
  Crack: 0.00%
  Cull dead cks: 0.56%
  Dead pip: 0.00%
  Mid dead: 0.56%
Eggs and hatched chicks; Day 7 Delta, DHP+ versus DHP−
  % Infertile, delta: 0.00%
  Chick Weight, delta: 1.10 g
  Cont, delta: −0.56%
  Crack, delta: 0.00%
  Cull dead cks, delta: 0.56%
  Dead pip, delta: 0.00%
  Fertile Hatchability, delta: 0.56%
  Late dead, delta: 0.55%
  Mid dead, delta: 0.56%
  Total Hatchability, delta: 0.56%
Eggs and hatched chicks; [7]
  % Infertile, delta: 1.00%
  Chick A, delta: 0.23%
  Chick B, delta: −0.23%
  Chick Weight, delta: 0.77 g
  Cont, delta: −0.05%
  Crack, delta: 0.05%
  Cull dead cks, delta: −0.10%
  Dead pip, delta: −0.30%
  Early dead, delta: −1.70%
  Late dead, delta: −0.97%
  Live pip, delta: 0.35%
  Mid dead, delta: 0.45%
Eggs and hatched chicks; [8]
  Cont: 0.00%
  Crack: 0.15%
  Cull dead cks: 0.05%
  Dead pip: 0.05%
  Live pip: 0.61%
  Mid dead: 0.61%
Eggs and hatched chicks; all storage times
  improvement in number of A grade chicks: 0.23%
Eggs and hatched chicks; an additional day (five days)
  increase of fertile hatchability vs untreated: 3.2%
  increase of total hatchability vs untreated: 1.3%
  increased weight vs untreated: 0.85 grams
Eggs and hatched chicks; at day 7
  DHP gas treated eggs observed to be contaminated: none
Eggs and hatched chicks; death during incubation
  decrease of number of early deaths: about 1.7%
  mid cycle deaths: decreased
Eggs and hatched chicks; eggs treated four days
  change of fertile hatchability vs untreated: +0.12
  change of total hatchability vs untreated: −0.64%
  increased weight vs untreated: +0.89 g
Eggs and hatched chicks; seven day storage
  increase of fertile hatchability vs untreated: 0.56%
  increase of total hatchability vs untreated: 0.56%
  increased weight vs untreated: 1.10 grams
Eggs and hatched chicks; six days
  increase of fertile hatchability vs untreated: 4.67%
  increase of total hatchability vs untreated: 2.96%
  increased weight vs untreated: 0.49 grams
Eggs and hatched chicks; vs untreated
  number of live pip eggs: increases
Eggs and hatched chicks; [9]
  % Infer: 0.00%
  Chick B: 2.40% and 4.80% and 3.70%
  Cont: 0.00%
  Crack: 0.00%
  Cull dead: 0.00%
  Dead pip: 0.00%
  Late dead: 0.00%
  Live pip: 0.00%
  Mid dead: 0.00%
Eggs and hatched chicks; [10]
  % Infer: 10.00%
  Chick A: 100.0%
  Cont: 0.00%
  Crack: 0.00%
  Cull dead: 0.00%
  Dead pip: 0.00%
  Late dead: 0.00%
  Live pip: 0.00%
  Mid dead: 0.00%
  Total Hatchblty: 90.00%
Eggs and hatched chicks; [11]
  % Infer: 0.00%
  Chick B: 4.80%
  Cont: 0.00%
  Crack: 0.00%
  Cull dead: 0.00%
  Dead pip: 0.00%
  Late dead: 0.00%
  Live pip: 0.00%
  Mid dead: 0.00%
  Total Hatchblty: 90.00%
Eggs and hatched chicks; [12]
  % Infer: 0.00%
  Check Weight: 44.94 g and 44.41 g
  Cont: 0.00%
  Crack: 0.00%
  Cull dead: 0.00%
  Dead pip: 0.00%
  Live pip: 0.00%
  Mid dead: 0.00%

Source: patent US12102063B2 (SYNEXIS LLC, priority 2017, dated 2024)
